The values below come from ChEMBL document CHEMBL1201862, “PubChem BioAssay data set” (2004).

Active and inactive are the calls of the source.

Test [1] is described as follows: HEK-293T viability loss after treatment – luminescence, T-cell screen hits, cytotoxicity control for TCR NF-kB inhibitor project, dose response (AID 489026).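 Note: cells exposed to compound about 14 hours before the viability readout.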 The class given is functional, cell-based.
Test [2] is described as follows: viability of uninfected HEp-2 cells – cell-based, HTS, cytotoxicity control for RSV inhibitor project, dose response (AID 2410). The settings on record: human respiratory syncytial virus. The class given is functional.
The test system of test [3] is Streptococcus sp. 'group A'. Put plainly: Streptococcus pyogenes SK(-)GAS viability under kanamycin – luminescence, BacTiterGlo, confirmation, counter-screen for streptokinase expression inhibitor project, dose response (AID 1900). The class given is functional, organism-based. For orientation: Counterscreens check selectivity or assay interference.
Another test addresses T1, Streptokinase A (Streptococcus pyogenes serotype M1, UniProt P10520).
T1 sequence (P10520 whole entry): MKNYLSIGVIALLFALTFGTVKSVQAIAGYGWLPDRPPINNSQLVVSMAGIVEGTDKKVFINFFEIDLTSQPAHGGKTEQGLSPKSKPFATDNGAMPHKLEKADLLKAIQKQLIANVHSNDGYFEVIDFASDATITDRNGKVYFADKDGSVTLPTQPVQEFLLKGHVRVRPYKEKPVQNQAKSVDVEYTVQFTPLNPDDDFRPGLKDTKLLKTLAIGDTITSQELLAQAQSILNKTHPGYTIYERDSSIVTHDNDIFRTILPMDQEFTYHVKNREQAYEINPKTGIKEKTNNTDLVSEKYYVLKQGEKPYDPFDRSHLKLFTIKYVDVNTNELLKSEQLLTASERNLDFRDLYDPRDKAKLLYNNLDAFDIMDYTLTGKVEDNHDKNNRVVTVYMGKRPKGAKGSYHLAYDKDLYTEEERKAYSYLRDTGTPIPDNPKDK
Kind of test: viability-normalized secreted streptokinase activity reduction – plasminogen activation absorbance, OD405, dose response (AID 1914).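 Note: secreted streptokinase activity via plasminogen activation per viability signal from cell pellet.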 The class given is functional, Streptococcus pyogenes M1 GAS.

The next test relates to Streptococcus. Put plainly: GAS UMAA2166 growth inhibition – luminescence, BacTiterGlo, counter-screen for streptokinase expression inhibitor project, dose response (AID 1915).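 Note: potency for reduction of bacterial viability or growth.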 The class given is functional, organism-based.
A short description of test [4]: luciferase reporter signal suppression in cells – H4 neuroglioma cells, luminescence, dose response (AID 1990). In kind it is functional, cell-based. (In a reporter assay the amount or activity of a reporter protein is the signal.)
Test [5] has as its system BJ. Kind of test: BJ-TERT fibroblast viability loss – cell-based, RAS-independent, luminescence, dose response (AID 1933). The settings on record: Homo sapiens. The class given is functional.
The nature of test [6]: Luminescence Cell-Based Dose Response HTS to Identify Inhibitors of 5'UTR Stem-Loop Driven Prion Protein mRNA Translation in H4 Neuroglioblastoma Cells. [Related pubchem assays: 1827 (Project Summary), 1813 (Primary HTS)]. In kind it is functional.
The subject of test [7] is BJ. Put plainly: cells. The class given is functional, cell-based. The conditions noted are these: Homo sapiens.
The subject of test [8] is BJ. Put plainly: BJ-TERT-LT-ST fibroblast viability loss – cell-based, RAS-independent, luminescence, dose response (AID 1935).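 Note: BJ fibroblasts immortalized with TERT plus LT and ST oncogenes.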 In kind it is functional. The conditions noted are these: Homo sapiens.
Test [9] can be described thus: DRD fibroblast viability loss – cell-based, non-viral oncogenic, luminescence, dose response (AID 1934). In kind it is functional. The settings on record: Homo sapiens.
Test [10] has as its target Glyceraldehyde-3-phosphate dehydrogenase (Homo sapiens, UniProt P04406).
For test [11], the target named is T2, Alkaline phosphatase, tissue-nonspecific isozyme (Homo sapiens, UniProt P05186).
T2 sequence (P05186 whole entry): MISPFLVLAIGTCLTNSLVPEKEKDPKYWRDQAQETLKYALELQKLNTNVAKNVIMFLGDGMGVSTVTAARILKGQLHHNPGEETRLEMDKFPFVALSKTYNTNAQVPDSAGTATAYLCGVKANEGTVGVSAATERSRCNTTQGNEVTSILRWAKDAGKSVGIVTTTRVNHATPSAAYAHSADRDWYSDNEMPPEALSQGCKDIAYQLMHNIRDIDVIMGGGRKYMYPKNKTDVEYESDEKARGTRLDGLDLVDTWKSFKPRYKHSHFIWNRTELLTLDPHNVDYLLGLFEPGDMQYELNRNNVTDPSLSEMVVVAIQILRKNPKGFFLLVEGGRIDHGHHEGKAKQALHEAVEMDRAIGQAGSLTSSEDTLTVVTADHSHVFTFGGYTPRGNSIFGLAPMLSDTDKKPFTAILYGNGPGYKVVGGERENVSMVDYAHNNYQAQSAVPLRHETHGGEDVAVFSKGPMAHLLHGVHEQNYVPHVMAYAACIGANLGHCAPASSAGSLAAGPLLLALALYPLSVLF
Kind of test: potency against alkaline phosphatase TNAP – biochemical, luminescent, dose response, SAR follow-up (AID 1056).

For test [12], the target named is T3, Short transient receptor potential channel 4 (Mus musculus, UniProt Q9QUQ5).
T3 sequence (Q9QUQ5 whole entry): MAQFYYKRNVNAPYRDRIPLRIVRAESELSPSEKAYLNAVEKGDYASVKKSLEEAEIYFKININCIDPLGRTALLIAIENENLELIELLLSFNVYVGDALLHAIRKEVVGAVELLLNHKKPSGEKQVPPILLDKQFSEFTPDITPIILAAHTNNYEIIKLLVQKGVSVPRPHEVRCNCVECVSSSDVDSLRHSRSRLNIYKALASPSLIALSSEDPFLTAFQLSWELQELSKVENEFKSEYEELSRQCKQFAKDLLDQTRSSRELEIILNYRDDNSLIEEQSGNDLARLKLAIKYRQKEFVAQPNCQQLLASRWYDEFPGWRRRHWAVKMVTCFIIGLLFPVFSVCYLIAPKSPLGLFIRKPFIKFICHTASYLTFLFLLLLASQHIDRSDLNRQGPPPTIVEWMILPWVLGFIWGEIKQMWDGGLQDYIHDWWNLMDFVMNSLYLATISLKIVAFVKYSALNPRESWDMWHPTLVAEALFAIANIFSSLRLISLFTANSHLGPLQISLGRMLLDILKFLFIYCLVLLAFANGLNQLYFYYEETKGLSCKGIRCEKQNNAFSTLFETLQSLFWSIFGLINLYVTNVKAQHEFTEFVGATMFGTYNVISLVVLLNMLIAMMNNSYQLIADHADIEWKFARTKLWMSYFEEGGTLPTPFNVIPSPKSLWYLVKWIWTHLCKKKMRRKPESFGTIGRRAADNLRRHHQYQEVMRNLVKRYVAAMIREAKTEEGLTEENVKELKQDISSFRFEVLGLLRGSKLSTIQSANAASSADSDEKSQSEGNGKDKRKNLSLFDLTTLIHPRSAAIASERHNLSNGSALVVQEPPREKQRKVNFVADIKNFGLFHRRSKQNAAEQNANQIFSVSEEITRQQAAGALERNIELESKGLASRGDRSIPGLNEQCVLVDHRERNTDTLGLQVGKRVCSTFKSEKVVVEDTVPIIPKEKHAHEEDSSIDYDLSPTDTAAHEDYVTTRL
Kind of test: block of DAMGO-driven TRPC4 calcium entry – cell-based, HEK293 TRPC4/mu-opioid, Fluo-4 calcium, dose response (AID 434942).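 Note: potency of inhibitors blocking the TRPC4 calcium response.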 In kind it is functional.

Test [13] has as its system Escherichia coli. Put plainly: microbe, parasite or virus in culture.
Test [14] concerns the target Glucose-6-phosphate 1-dehydrogenase (Homo sapiens, UniProt P11413). Put plainly: inhibition of Homo sapiens G6PD, dose series – biochemical, fluorescence, selectivity assay for P. falciparum G6PD inhibitor project, dose response (AID 504792). In kind it is functional.
For test [15], the system named is HEK293. Put plainly: inhibition of NOD1-driven NF-kB reporter – cell-based, luminescence, uHTS, primary screen (AID 1578). In kind it is functional. The conditions noted are these: Homo sapiens.
For test [16], the system named is HEK293. Put plainly: cells. The class given is functional, cell-based. The conditions noted are these: Homo sapiens.
For test [17], the system named is HEK293. Put plainly: cells. In kind it is functional, cell-based. The conditions noted are these: Homo sapiens. The source holds these as a separate data set.
The test system of test [18] is HEK293. Kind of test: NOD2 signaling inhibitors in MDP-stimulated cells, cell-based, uHTS, luminescence (AID 2001). In kind it is functional. The settings on record: Homo sapiens.
The nature of test [19]: HIV-1 AD8 envelope cell-cell fusion blockers – cherry-pick, dose response (AID 652062).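 Note: luciferase signal from cell-cell fusion driven by HIV-1 clade B AD8 Env; potency is for inhibitors of fusion seen as a drop in luminescence.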 In kind it is functional, cell-based.
For a further test, the system named is Vero. Kind of test: cells. In kind it is functional, cell-based. The conditions noted are these: Chlorocebus sabaeus.
The subject of test [20] is Escherichia coli. Kind of test: microbe, parasite or virus in culture. The source holds these as a separate data set.
For test [21], the target named is T4, Rac GTPase-activating protein 1 (Homo sapiens, UniProt Q9H0H5).
T4 sequence (Q9H0H5 whole entry): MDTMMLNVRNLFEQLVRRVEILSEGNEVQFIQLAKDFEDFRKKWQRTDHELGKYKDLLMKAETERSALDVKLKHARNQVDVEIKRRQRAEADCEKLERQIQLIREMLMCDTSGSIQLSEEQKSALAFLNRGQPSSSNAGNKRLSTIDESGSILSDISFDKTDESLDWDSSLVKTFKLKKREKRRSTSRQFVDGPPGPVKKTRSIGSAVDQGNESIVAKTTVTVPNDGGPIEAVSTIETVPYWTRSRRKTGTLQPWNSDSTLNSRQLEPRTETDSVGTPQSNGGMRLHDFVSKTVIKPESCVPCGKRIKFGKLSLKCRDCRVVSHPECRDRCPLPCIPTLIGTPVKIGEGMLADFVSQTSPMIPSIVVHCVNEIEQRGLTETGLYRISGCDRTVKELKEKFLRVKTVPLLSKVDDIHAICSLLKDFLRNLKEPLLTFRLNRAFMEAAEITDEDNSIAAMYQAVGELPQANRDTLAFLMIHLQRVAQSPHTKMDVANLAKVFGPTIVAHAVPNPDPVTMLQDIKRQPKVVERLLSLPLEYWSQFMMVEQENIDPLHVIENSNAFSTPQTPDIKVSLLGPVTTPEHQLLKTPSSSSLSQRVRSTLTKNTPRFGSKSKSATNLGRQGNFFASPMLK
Put plainly: blockers of MgcRacGAP-driven Rac1 GTP hydrolysis – biochemical, ADP Hunter fluorescence, primary and confirmatory, confirmation (AID 624330). The class given is functional.

Glucose-6-phosphate 1-dehydrogenase, sequence (P11413 whole entry): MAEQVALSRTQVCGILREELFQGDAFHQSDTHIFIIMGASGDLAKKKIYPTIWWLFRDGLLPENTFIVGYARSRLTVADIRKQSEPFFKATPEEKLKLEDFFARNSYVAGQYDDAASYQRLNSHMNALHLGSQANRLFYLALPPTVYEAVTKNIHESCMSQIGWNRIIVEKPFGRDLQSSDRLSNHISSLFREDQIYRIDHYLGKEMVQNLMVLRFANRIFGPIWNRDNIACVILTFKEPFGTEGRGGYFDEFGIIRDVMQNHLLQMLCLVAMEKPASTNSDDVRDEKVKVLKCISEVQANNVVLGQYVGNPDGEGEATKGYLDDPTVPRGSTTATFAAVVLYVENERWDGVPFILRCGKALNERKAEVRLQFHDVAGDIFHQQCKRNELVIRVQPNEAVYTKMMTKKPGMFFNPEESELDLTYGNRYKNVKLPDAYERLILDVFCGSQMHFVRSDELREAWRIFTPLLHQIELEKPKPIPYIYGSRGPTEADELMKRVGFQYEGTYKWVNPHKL
Glyceraldehyde-3-phosphate dehydrogenase, sequence (P04406 whole entry): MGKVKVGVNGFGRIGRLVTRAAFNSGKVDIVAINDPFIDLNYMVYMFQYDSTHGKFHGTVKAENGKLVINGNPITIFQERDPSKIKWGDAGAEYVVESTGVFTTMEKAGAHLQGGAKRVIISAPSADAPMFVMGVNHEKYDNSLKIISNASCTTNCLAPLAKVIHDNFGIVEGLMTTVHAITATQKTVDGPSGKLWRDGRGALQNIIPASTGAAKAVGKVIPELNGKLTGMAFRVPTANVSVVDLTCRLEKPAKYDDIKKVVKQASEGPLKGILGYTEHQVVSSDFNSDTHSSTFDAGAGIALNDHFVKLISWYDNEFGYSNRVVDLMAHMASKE

As for `Cc1ccc2[nH]c(-c3cccc(F)c3)cc(=O)c2c1`, the IC50 in test [1] is > 80 µM (inactive).
Regarding `Oc1ccccc1-c1nc2c3ccccc3c3ccccc3c2[nH]1`, in test [2], the CC50 was 15.3 µM (active). Moreover, the EC50 is 2.55 µM (active) in test [3], 4.11 µM (active) on Streptokinase A and 12 µM (active) with Streptococcus. Further, in the test “cells”, the IC50 was 11 µM (active).
In the case of `COc1ccc(C2=NOC(C(=O)NCc3ccc(F)cc3)C2)cc1OC` (configuration not stated), the EC50 in [4] was 11.2 µM (active); with BJ [5], 1.54 µM (inconclusive); in test [6], > 120 µM (not active); with BJ [7], 26 µM (active); in the test on BJ [8], 5.72 µM (inconclusive); in [9], 18.3 µM (active). For the same molecule, in test [1], the IC50 is > 80 µM (inactive).
Consider `O=C1C2CC=CCC2C(=O)N1c1nc[nH]n1` (configuration not stated), for which the IC50 in test [10] was > 100 µM (not active); in [11], > 100 µM (inactive).
For `O=C(CSc1nc2ccccc2c(=O)n1CCCO)N1CCc2ccccc21`, the EC50 in [12] is 0.596 µM (active).
Regarding `Clc1ccc(-c2csc(-c3cccnc3)n2)s1`, the AC50 in the test on Escherichia coli [13] was 276 µM (active).
As for `c1ccc(OCc2nnc3n2N=C(c2ccccc2)CS3)cc1`, the IC50 in test [14] is > 80 µM (inactive).
In the case of `Cc1ccccc1Cn1c(=N)n(CC(O)c2ccco2)c2ccccc21` (configuration not stated), the 50% effective concentration (EC50) in test [12] was 0.668 µM (active).
Take `COc1cccc(N2C(=O)C(Cl)=C(N3CCN(C/C=C/c4ccccc4)CC3)C2=O)c1`: the IC50 in [10] was > 50 µM (inconclusive).
As for `O=C(Nc1nc(-c2ccc3c(c2)OCO3)cs1)c1ccncc1`, the EC50 in the test with HEK293 [15] was 3.32 µM (active). Also, the IC50 in the test with HEK293 [16] is 4.5 µM (active); in the test with HEK293 [17], 11 µM (active); in the test with HEK293 [18], 4.79 µM (active). The AC50 in [19] is 4.67 µM (active).
On to `CCCCc1nc2ccccc2c(N)c1CCC.O=C(O)c1cc([N+](=O)[O-])ccc1Cl`, for which, in test [12], the EC50 is 1.19 µM (active).
With `CCOc1ccccc1NS(=O)(=O)c1c(C)noc1C`, the IC50 in test [14] was > 80 µM (inactive).
`Cc1cc(NC(=O)C(C)SCC(=O)N(Cc2ccccc2)c2ccccc2)no1` (configuration not stated): the CC50 in test [2] is 29.9 µM (active). Moreover, the values for the IC50 in the test on Vero and in “cells” were > 25 µM (active) and 39.6 µM (active), respectively.
Turning to `Cn1c(C(=O)OCC(=O)NCC2CCCO2)cc2sccc21` (configuration not stated), the concentration at half-maximal activity (AC50) in the test on Escherichia coli [20] is 25.8 µM (active); in the test with Escherichia coli [13] it was 149 µM (active).
Consider `C=CCOc1cccc(C(=O)N2CCCC(CCC(=O)NCc3ccccc3F)C2)c1` (configuration not stated), for which the AC50 with Escherichia coli [13] is 41.3 µM (active).
For the molecule `c1cc2c(cc1NC1CCCCCC1)OCO2`, the IC50 in test [14] was > 80 µM (inactive); in [21] it was 48.4 µM (active).
As for `C/C(Cn1nnc([N+](=O)[O-])n1)=N\NC(=O)c1ccc(O)cc1O`, in [14], the IC50 was > 80 µM (inactive). Besides, in the test on Escherichia coli [20], the concentration at half-maximal activity (AC50) was 84.9 µM (active).

In general, IC50 refers to the concentration at which inhibition is half-maximal. The term CC50 denotes the concentration at which the toxic effect on the cells reaches its halfway point. Broadly, the EC50 is the concentration needed to bring the measured effect to its halfway point. As usually defined, the AC50 is the concentration at which the activity in the assay is half-maximal.
